Results from article PMC11345752, “In Situ Biofilm Affinity-Based Protein Profiling Identifies the Streptococcal Hydrolase GbpB as the Target of a Carolacton-Inspired Chemical Probe” (Journal of the American Chemical Society, 2024).

Molecular target: T1, FolD (Escherichia coli, UniProt P24186)
T1 construct: purified E. coli FolD
Assay: dehydrogenase assay with purified FolD
Type: biochemical

Compound `COC(CC(=O)O)C(C)C(=O)C(C)/C=C(\C)C1OC(=O)C(O)C(O)C=CC(C)CCCC1C` (stereo not shown) [carolacton] has an IC50 of 94 nM.
